# Patent publication US12187742B2 (XRAD Therapeutics, Inc., priority 2018, dated 2025)
# Where a name gives a salt, the structure may show the parent alone.
# Molecular target: ATM (Homo sapiens (Human), UniProt Q13315)
# Assay: ATM in Cell Western Assay (pKAP1 in etoposide-treated MCF-7 cells)
# Assay type: cell-based
# Conditions: MCF-7 cells, etoposide 100 μM, 1 hr, pKAP1 readout
# In short: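 Cells received compounds in a 10-dose, 3-fold series from a 1 μM final top concentration, then 100 μM etoposide, for 1 hr at 37° C. They were then fixed with paraformaldehyde and permeabilized with 0.1% Triton X-100. After immunostaining, plates were scanned on an infrared imager.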
# ATM, sequence (Q13315 whole entry): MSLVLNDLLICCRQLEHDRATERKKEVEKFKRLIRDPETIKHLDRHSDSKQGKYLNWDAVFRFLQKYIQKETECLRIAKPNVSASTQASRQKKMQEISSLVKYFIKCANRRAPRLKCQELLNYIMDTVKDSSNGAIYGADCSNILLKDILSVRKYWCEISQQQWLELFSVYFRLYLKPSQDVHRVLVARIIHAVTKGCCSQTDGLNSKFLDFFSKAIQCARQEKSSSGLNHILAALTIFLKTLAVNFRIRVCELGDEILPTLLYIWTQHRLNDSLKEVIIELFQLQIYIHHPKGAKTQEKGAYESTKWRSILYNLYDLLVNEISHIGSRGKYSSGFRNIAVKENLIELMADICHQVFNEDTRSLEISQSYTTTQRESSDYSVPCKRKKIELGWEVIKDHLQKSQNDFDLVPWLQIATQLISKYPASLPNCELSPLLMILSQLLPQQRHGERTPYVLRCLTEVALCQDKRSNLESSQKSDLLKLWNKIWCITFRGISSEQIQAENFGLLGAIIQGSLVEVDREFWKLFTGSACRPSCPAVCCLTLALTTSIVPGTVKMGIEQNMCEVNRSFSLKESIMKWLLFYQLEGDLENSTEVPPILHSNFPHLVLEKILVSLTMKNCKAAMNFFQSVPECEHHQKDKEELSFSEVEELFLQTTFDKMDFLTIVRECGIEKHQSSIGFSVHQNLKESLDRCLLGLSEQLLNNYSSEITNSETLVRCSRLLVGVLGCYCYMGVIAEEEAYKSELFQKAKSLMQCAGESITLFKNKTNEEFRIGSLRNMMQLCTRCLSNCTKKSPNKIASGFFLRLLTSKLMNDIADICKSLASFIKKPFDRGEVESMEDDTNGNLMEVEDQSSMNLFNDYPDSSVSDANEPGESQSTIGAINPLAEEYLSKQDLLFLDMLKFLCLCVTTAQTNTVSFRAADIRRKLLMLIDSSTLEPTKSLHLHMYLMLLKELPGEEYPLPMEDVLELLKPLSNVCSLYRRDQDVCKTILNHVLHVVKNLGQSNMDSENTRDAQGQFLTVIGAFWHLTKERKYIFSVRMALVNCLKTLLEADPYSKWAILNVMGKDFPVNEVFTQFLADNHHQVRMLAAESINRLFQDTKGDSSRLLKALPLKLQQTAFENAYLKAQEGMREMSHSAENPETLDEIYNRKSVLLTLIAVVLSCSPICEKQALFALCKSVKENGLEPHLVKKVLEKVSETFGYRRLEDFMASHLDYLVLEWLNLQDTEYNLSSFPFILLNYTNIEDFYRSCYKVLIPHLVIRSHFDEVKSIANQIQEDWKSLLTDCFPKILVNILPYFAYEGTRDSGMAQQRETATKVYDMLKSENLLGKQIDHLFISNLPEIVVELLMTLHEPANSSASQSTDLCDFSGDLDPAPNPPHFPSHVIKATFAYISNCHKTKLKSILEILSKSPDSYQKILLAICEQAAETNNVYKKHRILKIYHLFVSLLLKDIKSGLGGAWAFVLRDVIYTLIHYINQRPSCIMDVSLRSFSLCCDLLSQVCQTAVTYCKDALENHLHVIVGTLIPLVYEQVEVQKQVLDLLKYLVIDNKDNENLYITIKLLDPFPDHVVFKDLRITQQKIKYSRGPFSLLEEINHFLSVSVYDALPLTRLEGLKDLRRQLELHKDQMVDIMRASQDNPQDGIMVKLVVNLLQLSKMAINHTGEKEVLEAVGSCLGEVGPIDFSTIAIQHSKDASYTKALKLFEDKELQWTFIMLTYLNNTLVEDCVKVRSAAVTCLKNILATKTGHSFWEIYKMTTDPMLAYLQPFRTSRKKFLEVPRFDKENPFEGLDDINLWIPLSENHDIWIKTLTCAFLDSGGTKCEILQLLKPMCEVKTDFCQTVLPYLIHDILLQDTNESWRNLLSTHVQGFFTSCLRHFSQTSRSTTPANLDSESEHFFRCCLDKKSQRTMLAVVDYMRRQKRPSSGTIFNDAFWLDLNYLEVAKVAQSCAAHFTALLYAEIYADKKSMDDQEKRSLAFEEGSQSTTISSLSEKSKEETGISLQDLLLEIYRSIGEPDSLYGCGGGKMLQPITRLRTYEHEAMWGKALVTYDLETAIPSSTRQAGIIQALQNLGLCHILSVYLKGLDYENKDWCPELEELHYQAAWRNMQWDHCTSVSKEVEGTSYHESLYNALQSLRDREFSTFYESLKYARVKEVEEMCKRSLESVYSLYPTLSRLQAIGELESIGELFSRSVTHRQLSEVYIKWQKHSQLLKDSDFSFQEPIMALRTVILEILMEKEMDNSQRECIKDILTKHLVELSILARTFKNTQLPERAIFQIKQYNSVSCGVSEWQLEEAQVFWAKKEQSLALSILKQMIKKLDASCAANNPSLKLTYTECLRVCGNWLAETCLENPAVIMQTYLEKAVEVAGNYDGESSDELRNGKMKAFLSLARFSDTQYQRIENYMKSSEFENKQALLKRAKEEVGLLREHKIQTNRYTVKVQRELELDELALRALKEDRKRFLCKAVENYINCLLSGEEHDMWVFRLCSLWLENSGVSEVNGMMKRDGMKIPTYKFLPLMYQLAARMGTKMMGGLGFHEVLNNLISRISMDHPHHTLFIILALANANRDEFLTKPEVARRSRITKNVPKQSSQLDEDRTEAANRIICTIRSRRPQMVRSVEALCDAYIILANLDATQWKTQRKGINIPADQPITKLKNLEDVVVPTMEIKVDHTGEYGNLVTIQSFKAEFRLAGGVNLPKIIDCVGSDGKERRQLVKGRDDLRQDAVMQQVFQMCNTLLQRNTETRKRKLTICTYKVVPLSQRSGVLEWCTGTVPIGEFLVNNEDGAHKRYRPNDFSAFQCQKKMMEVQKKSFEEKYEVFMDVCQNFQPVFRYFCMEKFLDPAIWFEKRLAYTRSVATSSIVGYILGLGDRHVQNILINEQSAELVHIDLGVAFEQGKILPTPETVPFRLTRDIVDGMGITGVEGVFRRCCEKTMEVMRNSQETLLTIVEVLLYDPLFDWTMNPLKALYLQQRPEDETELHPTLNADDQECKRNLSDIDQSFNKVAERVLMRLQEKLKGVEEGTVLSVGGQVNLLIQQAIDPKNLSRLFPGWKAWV
row,SMILES,IC50 [nM]
1,"COc1ncc(-c2ccc3ncc4c(c3c2)C2(CCC2)C(=O)N4C)cc1S(=N)(=O)c1ccccc1 (racemic) [Example 151, rac-8′-(6-Methoxy-5-(phenylsulfonimidoyl)pyridin-3-yl)-3′-methylspiro[cyclobutane-1,1′-pyrrolo[2,3-c]quinolin]-2′(3′H)-one]",> 100
2,"CN1C(=O)C2(CCC2)c2c1cnc1ccc(-c3cnc(CCCCN4CCCCC4)c(NS(C)(=O)=O)c3)cc21 [Example 269, N-(5-(3′-Methyl-2′-oxo-2′,3′-dihydrospiro[cyclobutane-1,1′-pyrrolo[2,3-c]quinolin]-8′-yl)-2-(4-(piperidin-1-yl)butyl)pyridin-3-yl)methanesulfonamide]",1 to 100
3,"CC1CCN(c2ncc(-c3ccc4ncc5c(c4c3)C3(CCC3)C(=O)N5C)cc2NS(C)(=O)=O)CC1 [Example 260, N-(5-(3′-Methyl-2′-oxo-2′,3′-dihydrospiro[cyclobutane-1,1′-pyrrolo[2,3-c]quinolin]-8′-yl)-2-(4-methylpiperidin-l-yl)Pyridin-3-yl)methanesulfonamide]",> 100
4,"CN1C(=O)C2(CCC2)c2c1cnc1ccc(-c3cnc(N4CC(N5CCCCC5)C4)c(NS(C)(=O)=O)c3)cc21 [Example 321, N-(5-(3′-Methyl-2′-oxo-2′,3′-dihydrospiro[cyclobulane-1,1′-pyrrolo[2,3-c]quinolin]-8′-yl)-2-(3-(piperidin-1-yl)azetidin-1-yl)pyridin-3-yl)methanesulfonamide hydrochloride]",1 to 100
5,"CN1C(=O)C2(CCC2)c2c1cnc1ccc(-c3cnc(OCCCN4CCCC(F)(F)C4)c(NS(C)(=O)=O)c3)cc21 [Example 298, N-(2-(3-(3,3-Difluoropiperidin-1-yl)propoxy)-5-(3′-methyl-2′-oxo-2′,3′-dihydrospiro[cyclobutane-1,1′-pyrrolo[2,3-c]quinolin]-8′-yl)pyridin-3-yl)methanesulfonamide]",> 100
6,"CN1C(=O)C(C)(c2ccncc2)c2c1cnc1ccc(-c3cnc(Cl)c(NS(=O)(=O)c4ccccc4)c3)cc21 (stereo not shown) [Example 23, N-(2-Chloro-5-(1,3-dimethyl-2-oxo-1-(pyridin-4-yl)-2′,3′-dihydro-1H-pyrrolo[2,3-c]quinolin-8-yl)pyridin-3-yl)benzenesulfonamide]",> 100
7,COc1ncc(-c2ccc3ncc4c(c3c2)C2(CC2)C(=O)N4C)cc1S(=O)(=O)c1ccccc1 [Example 36],> 100
8,"CN(C)CCCOc1ncc(-c2ccc3ncc4c(c3c2)C2(CCC2)C(=O)N4C)cc1NS(=O)(=O)c1ccc(OC(F)(F)F)cc1 [Example 143, N-(2-(3-(Dimethylamino)propoxy)-5-(3′-methyl-2′-oxo-2′,3′-dihydrospiro[cyclobulane-1,1′-pyrrolo[2,3-c]quinolin]-8′-yl)pyridin-3-yl)-4-(trifluoromethoxy)benzenesulfonamide hydrochloride]",1 to 100
9,"CN1C(=O)C2(CC2)c2c1cnc1ccc(-c3cncnc3)cc21 [Example 51, 3′-Methyl-8′-(pyrimidin-5-yl)spiro[cyclopropane-1,1′-pyrrolo [2,3-c]quinolin]-2′(3′-H)-one]",> 100
10,"CC(=O)Nc1ccc(S(=O)(=O)Nc2cc(-c3ccc4ncc5c(c4c3)C3(CC3)C(=O)N5C)cnc2OCCCN(C)C)cc1 [Example 101, N-(4-(N-(2-(3-(Dimethylamino)propoxy)-5-(3′-methyl-2′-oxo-2′,3′-dihydrospiro [cyclopropane-1,1′-pyrrolo[2,3-c]quinolin]-8′-yl)pyridin-3-yl)sulfamoyl)phenyl) acetamide]",1 to 100
11,"CN1C(=O)C2(CC2)c2c1cnc1ccc(-c3cnc(Cl)c(C(C)(C)O)c3)cc21 [Example 28, 8′-(6-Chloro-5-(2-hydroxypropan-2-yl)pyridin-3-yl)-3′-methylspiro[cyclopropane-1,1′-pyrrolo[2,3-c]quinolin]-2′(3′-H)-one]",> 100

# Same assay, conditions: pKAP1 in etoposide-treated MCF-7 cells
row,SMILES,IC50 [nM]
1,"CC(C)NCCOc1ncc(-c2cc3c4c(cnc3cc2F)N(C)C(=O)C42CN(C(=O)C(C)C)C2)cc1NS(C)(=O)=O [Example 512, N-(5-(7′-Fluoro-1-isobutyryl-3′-methyl-2′-oxo-2′,3′-dihydrospiro[azetidine-3,1′-pyrrolo[2,3-c]quinolin]-8′-yl)-2-(2-(isopropylamino)ethoxy)pyridin-3-yl)methanesulfonamide]",> 100
2,"CC(C)NCCOc1ncc(-c2cc3c4c(cnc3cc2F)N(C)C(=O)C42CN(c3cccnc3)C2)cc1NS(C)(=O)=O [Example 548, N-(5-(7′-Fluoro-3′-methyl-2′-oxo-1-(pyridin-3-yl)-2′,3′-dihydrospiro [azetidine-3,1′-pyrrolo[2,3-c]quinolin]-8′-yl)-2-(2-(isopropylamino)ethoxy)pyridin-3-yl)methanesulfonamide hydrochloride]",1 to 100
3,"CC(C)NCCOc1ncc(-c2cc3c(cc2F)ncc2c3[C@]3(C[C@@H](C(C)(C)O)C3)C(=O)N2C)cc1NS(C)(=O)=O [Example 457, trans-N-(5-(7′-Fluoro-3-(2-bydroxypropan-2-yl)-3′-methyl-2′-oxo-2′,3′-dihydrospiro[cyclobutane-1,1′-pyrrolo[2,3-c]quinolin]-8′-yl)-2-(2-(isopropylamino)ethoxy)pyridin-3-yl)methanesulfonamide]",1 to 100
4,"CC(=O)N1CCC(N2CC3(C2)C(=O)N(C)c2cnc4cc(F)c(-c5cnc(OCCNC(C)C)c(NS(C)(=O)=O)c5)cc4c23)CC1 [Example 503, N-(5-(1-(1-Acetylpiperidin-4-yl)-7′-fluoro-3′-methyl-2′-oxo-2′,3′-dihydrospiro[azetidine-3,1′-pyrrolo[2,3-c]quinolin]-8′-yl)-2-(2-(isopropylamino)ethoxy)pyridin-3-yl)methanesulfonamide]",> 100
5,"CCN1CC2(C1)C(=O)N(C)c1cnc3cc(F)c(-c4cnc(OCCNC(C)C)c(NS(C)(=O)=O)c4)cc3c12 [Example 482, N-(5-(1-Ethyl-7-fluoro-3′-methyl-2′-oxo-2′,3′-dihydrospiro[azetidine-3,1′-pyrrolo[2,3-c]quinolin]-8′-yl)-2-(2-(isopropylamino)ethoxy)pyridin-3-yl)methanesulfonamide]",1 to 100
6,"CNC[C@H]1C[C@]2(C1)C(=O)N(C)c1cnc3cc(F)c(-c4cnc(OCCNC(C)C)c(NS(C)(=O)=O)c4)cc3c12 [Example 454, cis-N-(5-(7′-Fluoro-3′-methyl-3-((methylamino)methyl)-2′-oxo-2′,3′-dihydrospiro[cyclobutane-1,1′-pyrrolo[2,3-c]quinolin]-8′-yl)-2-(2-(isopropylamino)ethoxy)pyridin-3-yl)methanesulfonamide]",> 100
7,"CN(C)CCCN(C)c1ncc(-c2ccc3ncc4c(c3c2)C2(CCC2)C(=O)N4C)cc1NS(C)(=O)=O [Example 362, N-(2-((3-(Dimethylamino)propyl)(methyl)amino)-5-(3′-methyl-2′-oxo-2′,3′-dihydrospiro[cyclobutane-1,1′-pyrrolo[2,3-c]quinolin]-8′-yl)pyridin-3-yl)methanesulfonamide hydrochloride]",1 to 100
8,"CC(C)NCCOc1ncc(-c2cc3c(cc2F)ncc2c3[C@]3(C[C@@H](N4CCCC4)C3)C(=O)N2C)cc1NS(C)(=O)=O [Example 468, trans-N-(5-(7′-Fluoro-3′-methyl-2′-oxo-3-(pyrrolidin-1-yl)-2′,3′-dihydrospiro[cyclobutane-1,1′-pyrrolo[2,3-c]quinolin]-8′-yl)-2-(2-(isopropylamino)ethoxy)pyridin-3-yl)methanesulfonamide]",1 to 100
